The values below come from publication PMC9518246, “Design and synthesis of new indole drug candidates to treat Alzheimer’s disease and targeting neuro-inflammation using a multi-target-directed ligand (MTDL) strategy” (Journal of Enzyme Inhibition and Medicinal Chemistry, 2022).

For test [1], the system named is IL-1β production in LPS-induced BV2 microglia cell lines. Description: IL-1β assessment in LPS-induced BV2 microglia (ELISA). In kind it is cell-based. As for the experimental part: IL-1β is a pro-inflammatory cytokines involved in the pathogenesis of AD[40]. So, activity of 5b and 6b derivatives were evaluated against LPS-induced BV2 microglia cell lines production of IL-1β. They induced a decrease in IL-1β level to about 5% and 48%, sequentially, as compared to a positive control (Figure 5).
(§1) LPS was the used positive control.
For IL-1β, this assay employs the quantitative sandwich enzyme immunoassay technique. A monoclonal antibody specific for human IL-1β has been pre-coated onto a micro plate. Standards and samples are piped into the wells and any IL-1β present is bound by the immobilised antibody. After washing away any unbound substances, an enzyme-linked polyclonal antibody specific for human IL-1β is added to the wells. Following a wash to remove any unbound antibody-enzyme reagent, a substrate solution is added to the wells and colour develops in proportion to the amount of IL-1β bound in the initial step. The colour development is stopped and the intensity of the colour is measured, the method of assessment was performed as instructed in the IL-1 β R&D system ELISA kit (catalog No. DLB50).
In general terms: An ELISA detects its analyte on a solid surface through an enzyme-linked reagent.

For test [2], the system named is NO production in LPS-induced BV2 microglia cell lines. Description: Nitric oxide (NO) assessment in LPS-induced BV2 microglia. In kind it is cell-based. The settings on record: positive control 6.42 pg/mL. As for the experimental part: In AD, increased production of vascular NO, a highly neurotoxic mediator in the CNS, may contribute to the vulnerability of neurons to injury and cell death.
as §1
NO plays an important role in neurotransmission, vascular regulation, immune response, and apoptosis. NO is rapidly oxidised to nitrite and nitrate which are used to quantitate NO. NO was estimated using the Abcam ELISA kit (catalog No. ab65328). Briefly, enzyme was added to cell lysate, followed with cofactor and incubated at room temperature for 60 min, after that Griess reagent was added and incubated at room temperature for 10 min., finally optical density was measured at 540 nm.
Microglia cell Line, BV-2, human neuroblastoma (SH-SY5Y), and normal hepatic (THLE2) cells were obtained from American Type Culture Collection, cells were cultured using DMEM (Invitrogen/Life Technologies, Carlsbad, CA) supplemented with 10% FBS (Hyclone), 10 µg/mL of insulin (Sigma, St. Louis, MO), and 1% penicillin-streptomycin. All of the other chemicals and reagents were from Sigma, or Invitrogen. Plate cells (cells density 1.2 − 1.8 × 10,000 cells/well) in a volume of 100 µL complete growth medium + 100 µL of the tested compounds per well in a 96-well plate for 24 h before the MTT assay.

For the next test, the target named is T1, Aβ1–42 (Homo sapiens, UniProt P05067).
T1 construct: purchased BioVision K570-100
Description: Inhibition of Aβ1-42 self-induced aggregation (BioVision ligand screening kit). In kind it is biochemical. The settings on record: µM. The source says: Screening Aβ42 ligands that could prevent aggregation is critical for developing potential therapeutic treatments. In BioVision’s Beta-Amyloid 1–42 (Aβ42) Ligand Screening kit, a dye binds to the beta-sheets of an aggregated amyloid peptide resulting in an intense fluorescent product at wave length 450 nm using a BIOLINE ELISA reader. In the presence of an Aβ42 ligand, this reaction is impeded/abolished resulting in a decrease or total loss of fluorescence. This assay is useful in screening Aβ42 ligands for developing potential therapeutic agents against AD[42]. The assessment was performed according to BioVision’s Beta-Amyloid 1–42 (Aβ42) Ligand Screening Kit Catalog No. K570-100.

Test [3] relates to COX-2 production in LPS-induced BV2 microglia cell lines. Description: COX-2 assessment in LPS-induced BV2 microglia (ELISA). In kind it is cell-based. As for the experimental part:
Previously, it was reported that COX-2 is a key mediator in the inflammatory response and may play a role in neurodegeneration.
as §1
For COX-2, all reagents, samples, and standards were prepared as Kit instructions, then 100 μl of standard or sample were added to each well, incubated 2.5 h at room temperature. Then 100 μl of prepared biotin antibody was added to each well, incubated an hour at room temperature. After that 100 μl of prepared Streptavidin solution was added. Then it was incubated for 45 min at room temperature. An aliquot of 100 μl TMB One-Step Substrate Reagent was added to each well, incubated 30 min at room temperature, 50 μL stop solution added to each well. Finally, the optical density was read at 450 nm immediately.

Test [4] relates to TNF-α production in LPS-induced BV2 microglia cell lines. Description: TNF-α assessment in LPS-induced BV2 microglia (ELISA). In kind it is cell-based. As for the experimental part:
TNF-α signalling exacerbates both Aβ and tau pathologies in vivo, according to several lines of evidence based on genetic and pharmacological modifications.
as §1
For TNF-α, cell lysate was used to assess TNF-α using the MyBioSource ELISA kit (Catalog No: MBS2502004). This assay employs the quantitative sandwich enzyme immunoassay technique. Briefly, 100 µl of the samples were added to each well. Incubate for 90 min at 37 °C, and immediately add 100 μl of Biotinylated Detection Ab working solution to each well. Incubate for 1 h at 37 °C, then add 350 µl of wash buffer to each well, 100 μl of HRP Conjugate working solution to each well was added, incubated for 30 min at 37 °C. Add 90 μl of Substrate Reagent to each well. Incubate for about 15 min at 37 °C. Then, 50 μl of Stop Solution was added to each well. Finally, the optical density of each well was detected at 450 nm.

In another test the target is BuChE (Homo sapiens, UniProt P06276). Description: biochemical. The settings on record: modified Ellman; read-out: BuChE inhibitory activity IC50. As for the experimental part:
(§2) The effects of twenty synthetic compounds were evaluated for AChE and BuChE inhibition using the modified method of Ellman et al.[33] […] AChE and BuChE are found in the brains of mammals. Genetically, structurally, and kinetically, the two kinds vary. In the human brain, BuChE is found in glial cells and neurons as well as in plaques and tangles in AD patients. […] BuChE may replace AChE by hydrolysing brain acetylcholine in some conditions, such as in mice nullizygote for AChE or in AD patients in advanced stages of the disease[34]^,[35].
Background: Ellman's reagent forms a yellow product with free thiols.

In the next test the target is AChE (Homo sapiens, UniProt P22303). Put plainly: biochemical. The settings on record: modified Ellman; read-out: AChE inhibitory activity IC50. As for the experimental part: as §2
The test system of another test is IL-1β production. On the set-up: method as in PMID 21295616. Conditions: read-out: suppression of IL-1β production IC50; cited from earlier work.

BuChE, sequence (P06276 29-602): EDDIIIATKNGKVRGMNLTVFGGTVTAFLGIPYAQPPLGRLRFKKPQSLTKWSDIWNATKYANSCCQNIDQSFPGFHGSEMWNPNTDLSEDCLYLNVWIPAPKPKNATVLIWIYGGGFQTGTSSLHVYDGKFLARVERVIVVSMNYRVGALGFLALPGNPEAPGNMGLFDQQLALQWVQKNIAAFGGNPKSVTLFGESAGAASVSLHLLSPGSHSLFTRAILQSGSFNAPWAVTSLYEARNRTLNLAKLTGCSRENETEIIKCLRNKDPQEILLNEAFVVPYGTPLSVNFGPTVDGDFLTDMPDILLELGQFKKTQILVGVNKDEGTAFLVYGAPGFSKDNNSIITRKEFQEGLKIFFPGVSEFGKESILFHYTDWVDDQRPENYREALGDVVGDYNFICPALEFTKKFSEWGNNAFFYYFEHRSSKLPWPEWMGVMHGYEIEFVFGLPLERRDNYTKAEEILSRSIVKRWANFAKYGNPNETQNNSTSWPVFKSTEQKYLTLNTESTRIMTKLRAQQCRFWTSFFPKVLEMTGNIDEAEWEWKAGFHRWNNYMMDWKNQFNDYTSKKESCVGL
AChE, sequence (P22303 32-614): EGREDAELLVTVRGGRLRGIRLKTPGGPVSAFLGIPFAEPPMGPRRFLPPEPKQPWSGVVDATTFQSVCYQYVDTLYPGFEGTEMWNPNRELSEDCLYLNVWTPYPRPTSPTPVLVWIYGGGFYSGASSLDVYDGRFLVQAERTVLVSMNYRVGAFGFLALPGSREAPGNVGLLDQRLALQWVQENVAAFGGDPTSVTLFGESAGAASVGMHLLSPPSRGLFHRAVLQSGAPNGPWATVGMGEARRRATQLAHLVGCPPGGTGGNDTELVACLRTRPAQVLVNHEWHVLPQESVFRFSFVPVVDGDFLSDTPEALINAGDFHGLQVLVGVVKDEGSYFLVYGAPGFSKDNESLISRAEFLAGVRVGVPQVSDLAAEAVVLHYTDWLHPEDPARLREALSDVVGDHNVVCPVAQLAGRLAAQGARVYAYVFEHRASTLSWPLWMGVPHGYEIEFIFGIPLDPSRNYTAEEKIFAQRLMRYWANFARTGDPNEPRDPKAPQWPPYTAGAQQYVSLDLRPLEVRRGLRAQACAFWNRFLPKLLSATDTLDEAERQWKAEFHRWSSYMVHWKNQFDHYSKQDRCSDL
T1 sequence (P05067 672-713 limits assumed): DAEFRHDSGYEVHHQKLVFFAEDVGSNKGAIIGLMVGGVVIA

In the case of `CS(=O)(=O)n1cc(/C=C/C(=O)c2ccc(NC(=O)Cc3ccc(Cl)cc3)cc2)c2ccccc21` [Compound 5b, (E)-2–(4-Chlorophenyl)-N-{4-[3–(1-(methylsulfonyl)-1H-indol-3-yl)acryloyl]phenyl}acetamide], the “decrease in IL-1β level to about, as compared to a positive control” value in test [1] was “about 5%”. In test [2], this compound registered an NO level of 4.89 pg/mL. Also, the IC50 amounted to 2.5 µM at Aβ1–42, 0.0369 µM on BuChE and 0.0275 µM at AChE. For the same compound, the “decrease in COX-2 levels as compared to a positive control” value in test [3] is on record as “about 20%”. In test [4], the “decrease in TNF-α levels to, compared to positive control” value amounted to 53%.
Turning to `CS(=O)(=O)n1cc(/C=C/C(=O)c2ccc(NC(=O)CN3CCC(Cc4ccccc4)CC3)cc2)c2ccccc21` [Compound 6b, (E)-2–(4-Benzylpiperidin-1-yl)-N-{4-[3–(1-(methylsulfonyl)-1H-indol-3-yl)acryloyl]phenyl}acetamide], in test [1], the “decrease in IL-1β level to about, as compared to a positive control” value is on record as about 48%. In test [2], this compound registered an NO level of 4.46 pg/mL. Besides, the IC50 amounted to 4.94 µM on Aβ1–42, 0.0804 µM at BuChE and 0.0493 µM at AChE. Besides, in test [3], the “decrease in COX-2 levels as compared to a positive control” value is listed as about 14%. Moreover, the “decrease in TNF-α levels to, compared to positive control” value in test [4] came out at 67%.
With `Cc1cc(-c2ccccc2)nnc1C(=O)N1CCN(c2ncccn2)CC1` [GIBH-130], the IC50 with IL-1β production was 0.0034 µM.

Usually IC50 stands for the concentration needed to halve the response being measured.
